The structures appear in SMILES notation. “And” between values parts separate entries of the source, which are not always exact repeats. Equal entries are not always repeated. Where two headings read alike, the source gives them in different places.

Experimental findings from PMC9229817, “Synthesis of novel isoxazole–carboxamide derivatives as promising agents for melanoma and targeted nano-emulgel conjugate for improved cellular permeability” (BMC Chemistry, 2022) are described below.

One data set deals with Hek293t. Put plainly: MTS assay, normal cell line Hek293t. The class given is cell-based. Conditions: 24 h treatment. As for the experimental part: (§1) Hepatocellular carcinoma (Hep3B and HepG2), cervical adenocarcinoma (HeLa), breast carcinoma (MCF-7), melanoma (B16F1), colorectal adenocarcinoma (Caco-2), and colon adenocarcinoma (Colo205), as well as human hepatic stellate (LX-2) in addition to the normal cell line (Hek293T), were used as cancer and normal cell lines and were cultured in RPMI-1640 media and supplemented with 10.0% fetal bovine serum, 1.0% l-glutamine and 1.0% Penicillin/Streptomycin antibiotics. After that, the cells matured in a moist atmosphere with 5.0% CO2 at 37 °C. In a 96-well plate, the cells were seeded at 2.5 × 10^4 cells/well. After 72 h, the cells were confluent, the media was changed, and then the cells were incubated with various concentrations (300, 100, 50, 10, and 1 µM), as well as lower concentrations (500, 100, and 50 nM) were used, especially for compound 2e against the B16-F1 cancer cell line to calculate accurate IC50 values for the evaluated compounds (2a–2f) for 24 h. The viability of cells was assessed by the Cell Tilter 96® Aqueous One Solution Cell Proliferation (MTS) Assay according to the manufacturer’s procedures (Promega Corporation, Madison, WI). However, at the end of the treatment, about 20 μl/100 μl of MTS solution/media was added to each well and for 2 h, they were incubated at 37 °C. Finally, the absorbance was measured at 490 nm.

The subject of a further data set is MCF-7. The data set can be described thus: MTS assay, MCF-7 breast carcinoma cells. The class given is cell-based, Human. The method, then:
as §1
For orientation: Formazan colour is commonly taken as a measure of viable cells.

Data set [1] concerns B16F1. Put plainly: MTS assay, B16F1 melanoma cells. The class given is cell-based. Conditions: for IC50: MTS, 24 h treatment. As for the experimental part: as §1
A further data set relates to Hep3B. The data set can be described thus: MTS assay, Hep3B hepatocellular carcinoma cells. The class given is cell-based. Conditions: 24 h treatment. As for the experimental part:
as §1

The next data set concerns Colo205. Put plainly: MTS assay, Colo205 colon adenocarcinoma cells. The class given is cell-based. Conditions: for IC50: MTS, 24 h treatment; for viability at 50 µM: COLO 205, read-out: Cell viability percentage, Colo205. As for the experimental part: as §1
Another data set has as its system HeLa. Put plainly: MTS assay, HeLa cervical adenocarcinoma cells. The class given is cell-based, Human. The settings on record: 24 h treatment. The method, then:
as §1

Data set [2] deals with B16F1, Colo205, HepG2, and HeLa cancer cell lines. The data set can be described thus: MTS assay, IC50 range over a panel of cancer cell lines. The class given is cell-based. The method, then:
as §1

The test system of the next data set is HepG2. Put plainly: MTS assay, HepG2 hepatocellular carcinoma cells. The class given is cell-based. Conditions: for viability at 50 µM: read-out: Cell viability percentage, HepG2; for IC50: MTS, 24 h treatment. The method, then: as §1
Another data set concerns CaCo-2. The data set can be described thus: MTS assay, CaCo-2 colorectal adenocarcinoma cells. The class given is cell-based. As for the experimental part:
as §1

The subject of data set [3] is human hepatic stellate cell (HSC) line LX-2. The data set can be described thus: Anti-fibrotic activity, MTS viability of LX-2 cells. The class given is cell-based. Conditions: 1 µM. The method, then:
Hepatocellular carcinoma (Hep3B and HepG2), cervical adenocarcinoma (HeLa), breast carcinoma (MCF-7), melanoma (B16F1), colorectal adenocarcinoma (Caco-2), and colon adenocarcinoma (Colo205), as well as human hepatic stellate (LX-2) in addition to the normal cell line (Hek293T), were used as cancer and normal cell lines and were cultured in RPMI-1640 media and supplemented with 10.0% fetal bovine serum, 1.0% l-glutamine and 1.0% Penicillin/Streptomycin antibiotics. After that, the cells matured in a moist atmosphere with 5.0% CO2 at 37 °C. In a 96-well plate, the cells were seeded at 2.5 × 10^4 cells/well. […] The viability of cells was assessed by the Cell Tilter 96® Aqueous One Solution Cell Proliferation (MTS) Assay according to the manufacturer’s procedures (Promega Corporation, Madison, WI). […] Finally, the absorbance was measured at 490 nm.
To explore the anti-fibrotic effects of these compounds on human hepatic stellate cell (HSC) line LX-2, the viability of LX-2 cells following various compounds' treatment was determined by the MTS assay.

Data set [4] has as its system B16F1. Put plainly: MTS assay, B16F1 melanoma cells. The class given is cell-based. Conditions: compound versus its nano-emulgel at 1, 0.5, 0.1, 0.05, and 0.01 µM.
Where [5] appears, read: Homo sapiens, MCF7, 24 h treatment.
The mark [6] stands for this setting: Homo sapiens, Caco-2, 24 h treatment.

A word on the IC50: it is the concentration that inhibits the measured activity by half. By viability is commonly meant a read-out of living cells in per cent, often relative to untreated cells. With `COc1cc(NC(=O)c2c(-c3ccccc3)noc2C)c(OC)cc1Cl` [2a, N-(4–Chloro-2,5-dimethoxyphenyl)-5-methyl-3-phenylisoxazole-4–Carboxamide], the IC50 with Hek293t (Homo sapiens, HEK-293T) is 2.54 ± 1.4 µM; in the data set on MCF-7 (setting [5]), more than 200 µM; in the data set with B16F1 [1] (Mus musculus, B16-F1), 29.7 ± 2.12 µM; with Hep3B (Homo sapiens, Hep3B), more than 200 µM; in the data set on Colo205 (Homo sapiens, COLO 205, 24 h), 9.18 µM; with Colo205 it was 9.18 ± 0.88 µM. The IC50 is 40.8 ± 1.25 µM in the data set with HeLa (Homo sapiens, HeLa); 7.54 to 129 µM in data set [2] (range over five cancer cell lines, read-out: IC50 range on five cancer cell lines); 7.55 to 40.9 µM in data set [2] (range over four cancer cell lines, read-out: IC50 range against B16F1, Colo205, HepG2, and HeLa); 7.55 ± 0.79 µM in the data set with HepG2 (Homo sapiens, HepG2); 129 ± 2.47 µM in the data set on CaCo-2 (setting [6]). For the same compound, the viability at 50 µM in the data set with Colo205 (Homo sapiens) was 39.4%; with HepG2 (Homo sapiens, HepG2), 29.2%.
As a reminder, the melting point is the temperature, or range, at which the solid turns liquid. Compound `COc1ccccc1Oc1ccc(NC(=O)c2c(-c3ccccc3)noc2C)cc1` [2c, N-(4-(2-Methoxyphenoxy)phenyl)-5-methyl-3-phenylisoxazole-4–Carboxamide] registered a melting point of 179 to 180 °C. Half-maximal inhibition in the data set with Hek293t (Homo sapiens, HEK-293T) (IC50) required 20.2 ± 1.32 µM. This compound came in with a half-maximal inhibitory concentration (IC50) in the data set on MCF-7 (setting [5]) of more than 200 µM. The same compound came in with an IC50 in the data set on B16F1 [1] (Mus musculus, B16-F1) of 21.1 ± 0.78 µM. Besides, the IC50 in the data set with Hep3B (Homo sapiens, Hep3B) was more than 200 µM. The same compound yielded an IC50 in the data set on Colo205 (Homo sapiens, COLO 205, 24 h) of 183 ± 2.05 µM. In the data set on HeLa (Homo sapiens, HeLa), the IC50 was more than 200 µM. The compound further showed a half-maximal inhibitory concentration (IC50) in the data set on HepG2 (Homo sapiens, HepG2) of 120 ± 2.19 µM. In the data set on CaCo-2 (setting [6]), this compound showed an IC50 of more than 200 µM.
Turning to `Cc1onc(-c2ccccc2)c1C(=O)Nc1cccc(C(F)(F)F)c1` [2b, 5-Methyl-3-phenyl-N-(3-(trifluoromethyl)phenyl) isoxazole-4–Carboxamide], the IC50 in the data set on Hek293t is 148 ± 2.74 µM; with MCF-7 (24 h treatment), more than 200 µM; in the data set on B16F1 [1], 42.9 ± 1.55 µM; in the data set on Hep3B, more than 200 µM; with Colo205 it was more than 200 µM; in the data set on HeLa, more than 200 µM. Also, the IC50 is 53.6 ± 2.04 µM in the data set with HepG2 and more than 200 µM with CaCo-2 (24 h treatment).
In turn, `CSc1ccc(NC(=O)c2c(-c3ccccc3)noc2C)cc1` [2d, 5-Methyl-N-(4-(methylthio)phenyl)-3-phenylisoxazole-4–Carboxamide] had a melting point of 144 to 146 °C. The compound also returned an IC50 in the data set on Hek293t (Homo sapiens, HEK-293T) of more than 200 µM. Also, the IC50 in the data set with MCF-7 (setting [5]) was more than 200 µM. For the same compound, in the data set on B16F1 [1] (Mus musculus, B16-F1), the IC50 stood at 39.8 ± 1.45 µM. For the same compound, the IC50 in the data set with Hep3B (Homo sapiens, Hep3B) is more than 200 µM. In addition, in the data set on Colo205 (Homo sapiens, COLO 205, 24 h), the IC50 was 216.4 ± 1.58 µM. In the data set on HeLa (Homo sapiens, HeLa), this compound returned an IC50 of more than 200 µM. For the same compound, the IC50 with HepG2 (Homo sapiens, HepG2) worked out at 37.9 ± 2.07 µM. Further, the IC50 with CaCo-2 (setting [6]) is more than 200 µM.
For `O=c1[nH]cc(F)c(=O)[nH]1` [5-FU], the “Cellular viability of LX-2” value in [3] was 95% and 94.64%.
For `COc1cccc2c1C(=O)c1c(O)c3c(c(O)c1C2=O)C[C@@](O)(C(=O)CO)C[C@@H]3O[C@H]1C[C@H](N)[C@H](O)[C@H](C)O1` [Dox, Doxorubicin, reference compound], the viability at 50 µM came out at 21.8% in the data set with B16F1 [1] (Mus musculus, B16-F1, 50 µM, read-out: Cell viability percentage, B16F1); 9.89% with Colo205 (Homo sapiens); 9.46% in the data set on HepG2 (Homo sapiens, HepG2). In the data set on B16F1 [1] (Mus musculus, B16-F1), this compound showed an IC50 of 0.056 µM.
Consider `Cc1onc(-c2ccccc2)c1C(=O)Nc1ccc(-c2cccs2)cc1` [2f, 5-Methyl-3-phenyl-N-(4-(thiophen-2-yl)phenyl) isoxazole-4–Carboxamide], for which the IC50 was 7.91 ± 0.61 µM with Hek293t; more than 200 µM with MCF-7 (24 h treatment); 12.7 ± 1.01 µM in the data set on B16F1 [1]; 54.6 ± 2.11 µM with Hep3B; 75.4 ± 2.41 µM in the data set with Colo205; more than 200 µM with HeLa. Also, the figures for the IC50 in the data set with HepG2 and in the data set with CaCo-2 (24 h treatment) were 38.4 ± 1.07 µM and more than 200 µM, respectively. Besides, the “Cell viability percentage, B16F1” value in the data set on B16F1 [1] (50 µM) turned out to be 34.03%. For the same compound, the “Cellular viability of LX-2” value in [3] was determined as 66.55%.
Take `Cc1onc(-c2ccccc2)c1C(=O)Nc1ccc(OC(F)(F)F)cc1` [2e, 5-Methyl-3-phenyl-N-(4-(trifluoromethoxy)phenyl) isoxazole-4–Carboxamide]: the IC50 was 190 ± 2.67 µM with Hek293t; more than 200 µM in the data set on MCF-7 (24 h treatment); 0.079 µM in the data set on B16F1 [1]; 79 nM in the data set with B16F1 [4]; more than 200 µM in the data set with Hep3B; more than 200 µM in the data set on Colo205. In addition, the IC50 in the data set with HeLa, in the data set with HepG2 and in the data set with CaCo-2 (24 h treatment) was more than 200 µM in each case. Besides, the “Cell viability percentage, B16F1” value in the data set on B16F1 [1] (50 µM) came out at 18.42%.
